Values of other authors in patent publication US20170071869A1 (Teva Pharmaceutical Industries Ltd., priority 2014, published 2017).

What was measured:
[1] = test system: genes related to antigen presentation (NFkB pathway); conditions: mainly via the NFkB pathway

oral bioavailability: high oral bioavailability
Structure (SMILES): CCN(C(=O)c1c(O)c2c(Cl)cccc2n(C)c1=O)c1ccccc1 [Laquinimod]
suppression of genes related to antigen presentation and corresponding inflammatory pathways [1]: induced suppression of genes related to antigen presentation
